Measurements as given in US5639726A, “Peptide mediated enhancement of thrombolysis methods and compositions” (The Regents of the University of Michigan, priority 1994, dated 1997).
Ends that are not written are not given here.

Key:
Type in all cases: biochemical
[1] = biological target: T1, PAI-1 (Homo sapiens, UniProt P05121); assay: Kinetics of peptide annealing: residual PAI inhibitory activity assayed with β-trypsin and S-2222; details: peptide 5.5 mM; 25° C.
T1 construct: made in house; host or cells: E. coli (vector pET3a)
T1 sequence (P05121 24-402): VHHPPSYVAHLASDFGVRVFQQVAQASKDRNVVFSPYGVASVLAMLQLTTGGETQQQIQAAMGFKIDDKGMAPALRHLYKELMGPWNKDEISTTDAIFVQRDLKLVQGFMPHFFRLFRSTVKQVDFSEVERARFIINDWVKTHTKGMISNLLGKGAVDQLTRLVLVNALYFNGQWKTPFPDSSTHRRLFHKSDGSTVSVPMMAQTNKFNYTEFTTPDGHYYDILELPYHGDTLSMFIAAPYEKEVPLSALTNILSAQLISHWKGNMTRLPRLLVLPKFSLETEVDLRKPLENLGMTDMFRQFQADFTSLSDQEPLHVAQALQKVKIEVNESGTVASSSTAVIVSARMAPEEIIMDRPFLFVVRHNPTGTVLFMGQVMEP
Method: PAI-1 (6.4 μM) was incubated with increasing concentrations of each peptide at 23° C. and the (T1/2) of PAI-1 inactivation was determined by measuring the PAI-1 activity remaining over time.
Peptides were dissolved in 1 mM HCl+1% TWEEN-80 (the three PAI peptides) (SEQ ID NOS: 1-3), or in 0.1M HEPES (SEQ ID NOS: 4-5), 0.1M NaCl, 0.1% PEG-8000, pH […] (the two consensus peptides). Peptides were annealed to active PAI by incubation of active PAI in 0.1M HEPES, 0.1M NaCl, 0.1% PEG-8000, pH 7.4 with a peptide in its solvent. Ten percent of the final incubation mixture consisted of the peptide solvent. Incubation was carried out at 25° C. until no PAI inhibitory activity remained as determined by kinetics rate assays with trypsin, described below. The final concentration of PAI in the incubation mixture was either 0.9 μM (for kinetics assays) or 6.3 μM (for gels and purification). The peptide concentrations varied greatly due to the individual solubilities and rates of insertion of each peptide. These concentrations are given in the legends of the appropriate figures.
During annealing of 0.9 μM PAI with a peptide, the residual inhibitory activity of PAI was measured after varying incubation times by assaying an aliquot of the sample with β-trypsin. Trypsin (1 nM final concentration) was added to the chromogenic substrate S-2222 (950 μM) with 27 nM PAI sample. The absorbance at 405 nm was measured continuously for at least 12.5 min in a Shimadzu UV-265 UV-visible spectrophotometer. The pseudo-first order rate constant of trypsin is an indirect measure of the amount of PAI that has lost inhibitory activity due either to annealing or to becoming latent. The rate constant of controls containing the peptide solvent but no peptide was subtracted from that of the experimental assays in order to correct for the effect of the simultaneous change of PAI from the active to the latent state.

[2] = biological target: T1, PAI-1; assay: Plasminogen activator inhibitor 1 activity assay (t-PA, Spectrozyme t-PA); details: for PAI-1 T1/2: PAI-1 0.7 μM, peptide 55 μM, 98±18 min without peptide
Method: (§1) PAI-1 (0.7 μM) was incubated at 37° C. with either P1-P14 peptide or control peptide (55 μM) in 0.1M HEPES, 0.1M NACl, 0.1% PEG (MW 8000), pH 7.4 (assay buffer). At timed intervals 0-110 minutes), 5 μL of the PAI-1:peptide mixture was added to 96 well microtiter plates containing 45 μL of t-PA (0.03 μM in assay buffer), then incubated for 30 minutes at 37° C. Spectrozyme t-PA (final concentration of 150 μM) was added to yield a final reaction volume of 70 μL, and 30 minutes later the absorbance at 405 nm was determined in a THERMO-max (Molecular Devices, Palo Alto, Calif.) microplate reader. 100% PAI-1 activity was defined as activity observed at time zero, while 0% PAI-1 activity was defined as that observed in the absence of PAI-1. A standard t-PA activity curve, derived from absorbance values of varying concentrations of t-PA incubated in the absence of PAI-1, was used to determine PAI-1 activity.

[3] = biological target: T2, vitronectin-bound PAI-1 (Homo sapiens, UniProt P05121); assay: PAI-1 activity assay in the presence of vitronectin; details: for T1/2 of vitronectin-bound PAI-1: PAI-1 0.7 μM with vitronectin 1.7 μM, 37° C., 190±12 minutes without peptide
T2 construct: made in house; host or cells: E. coli (PAI-1); vitronectin a gift
T2 sequence (P05121 24-402): as above
Method: as §1
Since vitronectin binds and stabilizes the active conformation of PAI-1, the capacity of the Thr-Val-Ala-Ser-Ser-Ser-Thr-Ala-Val-Ile-Val-Ser-Ala-Arg (SEQ ID NO: 1) to inactivate vitronectin-bound PAI-1 was examined. PAI-1 (0.7 μM) was incubated with vitronectin (1.7 μM) for 30 minutes at 37° C., then Thr-Val-Ala-Ser -Ser-Ser-Thr-Ala-Val-Ile-Val-Ser-Ala-Arg (SEQ ID NO: 1) or control peptide (55 μM) was added, and the PAI-1 T1/2 was determined. In the presence of vitronectin, the T1/2 of PAI-1 was prolonged approximately 2-fold (98±18 to 190±12 minutes), similar to previous reports (Declerck et al. 1988).

[4] = biological target: T1, PAI-1; assay: Kinetics of peptide annealing: residual PAI inhibitory activity assayed with β-trypsin and S-2222; details: for k / kobs / t1/2 of PAI-1 inactivation: 25° C.

k [1]: .014 M⁻¹ s⁻¹ | PAI-1 T1/2 ([2]; 37° C.): approximately four | PAI-1 T1/2 ([2]; 37° C., listed as P1-P14 peptide): 4 ± 3 min | fold shortening of the PAI-1 T1/2 ([2]; 37° C., peptide 55 μM vs no peptide, listed as P1-P14 peptide): 24 fold | drop in t1/2, wt14-mer (37° C.) compared to wt8-mer (25° C.) ([2]; similar peptide concentrations (55 μM)): 100 fold | T1/2 of vitronectin-bound PAI-1 ([3]; peptide 55 μM): about 120 minutes | T1/2 of vitronectin-bound PAI-1 ([3]; peptide 55 μM, listed as P1-P14 peptide): only slowly inactivated | decrease of the half-life of PAI-1 in the presence of vitronectin ([3]; from approximately 190 to about 120 minutes): ~40% | fold decrease of the half-life of vitronectin-bound PAI-1 ([3]; peptide 55 μM): 1.6 fold | half-life of PAI inactivation ([4]; 0.9 μM PAI, 64 μM peptide): 4.3 min | k ([4]; peptide 1.5 mM): .022 M⁻¹ s⁻¹ | kobs ([4]; peptide 1.5 mM): .12 h⁻¹ | t1/2 of PAI-1 inactivation ([4]; peptide 1.5 mM): 5.8 h | k ([4]; peptide 3.5 mM): .020 M⁻¹ s⁻¹ | kobs ([4]; peptide 3.5 mM): .25 h⁻¹ | t1/2 of PAI-1 inactivation ([4]; peptide 3.5 mM): 2.7 h | kobs ([4]; peptide 5.5 mM): .28 h⁻¹ | t1/2 of PAI-1 inactivation ([4]; peptide 5.5 mM): 2.5 h | k ([4]; peptide 7 mM): .012 M⁻¹ s⁻¹ | kobs ([4]; peptide 7 mM): .31 h⁻¹ | t1/2 of PAI-1 inactivation ([4]; peptide 7 mM): 2.2 h | k ([4]; peptide 9 mM): .017 M⁻¹ s⁻¹ | kobs ([4]; peptide 9 mM): .54 h⁻¹ | t1/2 of PAI-1 inactivation ([4]; peptide 9 mM): 1.3 h
Substance: Ac-TVASSSTAVIVSAR [SEQ ID NO: 1, Thr-Val-Ala-Ser-Ser-Ser-Thr-Ala-Val-Ile-Val-Ser-Ala-Arg]
